# Measured values taken from ChEMBL document CHEMBL1201862, “PubChem BioAssay data set” (2004).
#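 Protocol summary: plate cells (96-well), add compound at 5 concentrations, incubate 48 h, interpolate endpoints linearly. GI50 marks 50% less growth.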 Activity calls are given as the source filed them. Cut-off read from the data, not from the text of the source: active = GI50 up to about 1.1 µM and inactive = higher.
# Assays:
# Assay in all cases: inhibition of tumour cell growth, NCI panel, 48 h
# [1] = test system: NCI-H460
# [2] = test system: OVCAR-3
# [3] = test system: SNB-19
# [4] = test system: UACC-62
# [5] = test system: TK-10
# [6] = test system: RPMI-8226
# [7] = test system: HL-60
# [8] = test system: HT-29
# [9] = test system: COLO 205
# [10] = test system: M14
# [11] = test system: HCC 2998
# [12] = test system: SW-620
# [13] = test system: SK-MEL-28
# [14] = test system: T47D
# [15] = test system: BT-549
# [16] = test system: UACC-257
# [17] = test system: SF-539
# [18] = test system: LOX IMVI
# [19] = test system: HOP-62
# [20] = test system: Malme-3M
# [21] = test system: U-251
# [22] = test system: A498
# [23] = test system: SF-268
# [24] = test system: SR
# [25] = test system: DU-145
# [26] = test system: NCI-H522
# [27] = test system: Hs-578T
# [28] = test system: MDA-MB-435
# [29] = test system: NCI/ADR-RES
# [30] = test system: HOP-92
# [31] = test system: UO-31
# [32] = test system: MDA-MB-231
# [33] = test system: HCT-116
# [34] = test system: PC-3
# [35] = test system: SK-OV-3
# [36] = test system: MOLT-4
# [37] = test system: SNB-75
# [38] = test system: ACHN
# [39] = test system: CAKI-1
# [40] = test system: IGROV-1
# [41] = test system: OVCAR-8
# [42] = test system: KM12
# [43] = test system: SN12C
# [44] = test system: A549
# [45] = test system: SK-MEL-5
# [46] = test system: NCI-H226
# [47] = test system: OVCAR-5
# [48] = test system: MCF7
# [49] = test system: SK-MEL-2
# [50] = test system: 786-0
# [51] = test system: HCT-15
# [52] = test system: RXF 393
# [53] = test system: K562
# [54] = test system: OVCAR-4
# [55] = test system: SF-295
# [56] = test system: EKVX
smiles,measurement,setting,value
O=S(=O)(O)C1CCC(O)C2NCCCC21 (stereo unspecified),GI50,[1],> 100 µM (inactive)
same,GI50,[2],> 100 µM (inactive)
same,GI50,[3],> 100 µM (inactive)
same,GI50,[4],> 100 µM (inactive)
same,GI50,[5],> 100 µM (inactive)
same,GI50,[6],> 100 µM (inactive)
same,GI50,[7],20.7 µM (inactive)
same,GI50,[8],> 100 µM (inactive)
same,GI50,[9],> 100 µM (inactive)
same,GI50,[10],> 100 µM (inactive)
same,GI50,[11],> 100 µM (inactive)
same,GI50,[12],> 100 µM (inactive)
same,GI50,[13],> 100 µM (inactive)
same,GI50,[14],> 100 µM (inactive)
same,GI50,[15],> 100 µM (inactive)
same,GI50,[16],> 100 µM (inactive)
same,GI50,[17],> 100 µM (inactive)
same,GI50,[18],> 100 µM (inactive)
same,GI50,[19],> 100 µM (inactive)
same,GI50,[20],> 100 µM (inactive)
same,GI50,[21],> 100 µM (inactive)
same,GI50,[22],> 100 µM (inactive)
same,GI50,[23],> 100 µM (inactive)
same,GI50,[24],> 100 µM (inactive)
same,GI50,[25],> 100 µM (inactive)
same,GI50,[26],> 100 µM (inactive)
same,GI50,[27],> 100 µM (inactive)
same,GI50,[28],> 100 µM (inactive)
same,GI50,[29],> 100 µM (inactive)
same,GI50,[30],> 100 µM (inactive)
same,GI50,[31],> 100 µM (inactive)
same,GI50,[32],> 100 µM (inactive)
same,GI50,[33],> 100 µM (inactive)
same,GI50,[34],> 100 µM (inactive)
same,GI50,[35],> 100 µM (inactive)
same,GI50,[36],> 100 µM (inactive)
same,GI50,[37],> 100 µM (inactive)
same,GI50,[38],> 100 µM (inactive)
same,GI50,[39],> 100 µM (inactive)
same,GI50,[40],> 100 µM (inactive)
same,GI50,[41],> 100 µM (inactive)
same,GI50,[42],> 100 µM (inactive)
same,GI50,[43],> 100 µM (inactive)
same,GI50,[44],> 100 µM (inactive)
same,GI50,[45],> 100 µM (inactive)
same,GI50,[46],> 100 µM (inactive)
same,GI50,[47],> 100 µM (inactive)
same,GI50,[48],> 100 µM (inactive)
same,GI50,[49],> 100 µM (inactive)
same,GI50,[50],> 100 µM (inactive)
same,GI50,[51],> 100 µM
same,GI50,[52],> 100 µM (inactive)
same,GI50,[53],> 100 µM (inactive)
same,GI50,[54],> 100 µM (inactive)
same,GI50,[55],> 100 µM (inactive)
same,GI50,[56],> 100 µM (inactive)
